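Protocol summary: plate cells (96-well), add compound at 5 concentrations, incubate 48 h, interpolate endpoints linearly. The concentration for 50% growth inhibition is given as GI50.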 Calls of active or inactive are those of the source. Rule as the data show it: active = GI50 up to about 1.1 µM and inactive = higher.
Columns and labels:
Test in all cases: growth of human tumour cells (NCI), 48 h
UACC-62 = test system: UACC-62
HT-29 = test system: HT-29
CAKI-1 = test system: CAKI-1
Malme-3M = test system: Malme-3M
NCI-H226 = test system: NCI-H226
M14 = test system: M14
SK-MEL-5 = test system: SK-MEL-5
786-0 = test system: 786-0
SF-268 = test system: SF-268
KM12 = test system: KM12
HOP-92 = test system: HOP-92
UO-31 = test system: UO-31
RXF 393 = test system: RXF 393
HCT-116 = test system: HCT-116
DU-145 = test system: DU-145
NCI/ADR-RES = test system: NCI/ADR-RES
MCF7 = test system: MCF7

Measured: GI50

O=[N+]([O-])c1ccc2nc3ccscc-3c2c1
inactive: UACC-62 21.4 µM | HT-29 22.6 µM | CAKI-1 13 µM | Malme-3M 29 µM | NCI-H226 20.9 µM | M14 16 µM | SK-MEL-5 7.31 µM | 786-0 19.5 µM | SF-268 14.7 µM | KM12 7.52 µM | HOP-92 10.8 µM | UO-31 8.13 µM

Cc1cc(N(CCC#N)CCC#N)ccc1/N=N/c1ccc([N+](=O)[O-])cc1
inactive: UACC-62 > 10 µM | HT-29 > 100 µM | CAKI-1 > 100 µM | Malme-3M > 100 µM | NCI-H226 > 100 µM | RXF 393 32.5 µM | M14 > 100 µM | SK-MEL-5 > 10 µM | 786-0 43 µM | SF-268 > 100 µM | KM12 > 100 µM | HCT-116 17.7 µM | HOP-92 55 µM | UO-31 > 100 µM

Cc1cc(OCC(O)CO)ccc1-c1ccccc1 (stereo not given)
inactive: UACC-62 > 100 µM | HT-29 70.1 µM | CAKI-1 > 100 µM | Malme-3M > 100 µM | NCI-H226 > 100 µM | RXF 393 21.2 µM | M14 > 100 µM | SK-MEL-5 > 100 µM | 786-0 > 100 µM | SF-268 > 100 µM | KM12 > 100 µM | HCT-116 77.3 µM | HOP-92 92.5 µM | UO-31 > 100 µM

NC(CCc1nc(-c2ccc(Cl)cc2)cs1)C(=O)O (stereo not given)
inactive: UACC-62 > 100 µM | HT-29 > 100 µM | CAKI-1 > 100 µM | Malme-3M > 100 µM | NCI-H226 > 100 µM | RXF 393 > 100 µM | M14 > 100 µM | SK-MEL-5 > 100 µM | 786-0 > 100 µM | SF-268 > 100 µM | KM12 > 100 µM | HCT-116 > 100 µM | HOP-92 > 73.5 µM | UO-31 > 100 µM

CCOC(=O)C(=O)Nc1c(C)cccc1CC
inactive: UACC-62 > 100 µM | HT-29 > 100 µM | CAKI-1 > 100 µM | Malme-3M > 100 µM | NCI-H226 > 100 µM | RXF 393 > 100 µM | M14 > 100 µM | SK-MEL-5 > 100 µM | 786-0 > 100 µM | SF-268 > 100 µM | KM12 > 100 µM | HCT-116 > 100 µM | HOP-92 > 100 µM | UO-31 > 100 µM

N#CN1CCC=C(c2cc3ccccc3[nH]2)C1
inactive: UACC-62 201 µM | HT-29 > 448 µM | CAKI-1 245 µM | Malme-3M 442 µM | NCI-H226 > 448 µM | RXF 393 256 µM | SK-MEL-5 148 µM | 786-0 > 448 µM | SF-268 210 µM | KM12 161 µM | HCT-116 285 µM | HOP-92 146 µM

O=C(Cn1cc(-c2ccccc2)nn1)NC1CCCC1
inactive: HT-29 > 100 µM | CAKI-1 > 100 µM | DU-145 > 100 µM | NCI/ADR-RES > 100 µM | Malme-3M > 100 µM | MCF7 > 100 µM | NCI-H226 > 100 µM | M14 > 100 µM | SK-MEL-5 > 100 µM | 786-0 > 100 µM | SF-268 > 100 µM | KM12 > 100 µM | HCT-116 > 100 µM | HOP-92 > 100 µM

CC(=O)NC(CCCN(Cc1ccccc1)C(=O)N(CCCl)N=O)C(=O)NCc1ccccc1 (stereo not given)
inactive: UACC-62 2.24 µM | HT-29 > 57.5 µM | CAKI-1 7.5 µM | Malme-3M > 53.1 µM | NCI-H226 44.9 µM | RXF 393 21.8 µM | M14 42.7 µM | SK-MEL-5 27.5 µM | 786-0 2.24 µM | SF-268 3.89 µM | KM12 60.5 µM | HCT-116 37.8 µM | HOP-92 36 µM | UO-31 43.4 µM

NC(=S)N/N=C(\CC1OC(=O)c2ccccc21)c1ccc(Cl)cc1 (stereo not given)
inactive: UACC-62 19.6 µM | HT-29 27.2 µM | CAKI-1 36.3 µM | Malme-3M 30.6 µM | NCI-H226 24.4 µM | RXF 393 25.1 µM | M14 43.2 µM | 786-0 43.4 µM | SF-268 36.8 µM | KM12 22 µM | HCT-116 24.4 µM | HOP-92 23.1 µM | UO-31 24.9 µM

O=C1N2Cc3c4ccc5c3CN3C(=O)N6Cc7c(ccc(c7CN1C6(c1ccccc1)C23c1ccccc1)OCCOCCNCCOCCO4)OCCOCCNCCOCCO5 (stereo not given)
inactive: UACC-62 42.4 µM | HT-29 13.9 µM | CAKI-1 51.6 µM | Malme-3M 23.5 µM | NCI-H226 > 100 µM | RXF 393 33.2 µM | M14 21.8 µM | SK-MEL-5 55.2 µM | 786-0 31.5 µM | SF-268 > 100 µM | KM12 18.5 µM | HCT-116 30.8 µM | HOP-92 18 µM | UO-31 38.8 µM
